Active and inactive are the calls of the source. The calls are words filed in the database; no cut-off is given here.
How the values were obtained:
Mus musculus [1] = assay: Toxicity in Kunming mouse xenografted with […] cells assessed as effect on kidney weight index at 3 mg/kg, iv dosed every day starting from day 8 after tumor cell inoculation; assay type: organism-based; conditions: in vivo
HepG2 [2] = assay: Induction of apoptosis in human HepG2 cells assessed as late apoptotic cells at 20 uM after 24 hrs by Annexin V-FITC/propidium iodide staining based flow cytometric analysis (reference value: 8.96 %); assay type: functional
H22 [3] = assay: Antimetastatic activity against […] xenografted in pulmonary metastasis Kunming mouse model assessed as reduction in tumor metastatic nodules at 3 mg/kg, iv dosed every day starting from day 8 after tumor cell inoculation by H/E staining based leica microscopic analysis; assay type: functional, organism-based
HepG2 [4] = assay: Induction of cleaved PARP expression in human HepG2 cells up to 20 uM pre-treated with NAC measured after 24 hrs by Western blot analysis; assay type: functional, cell-based
SMMC-7721 [5] = assay: Antiproliferative activity against human SMMC7721 cells assessed as reduction in cell viability at 20 uM pre-treated with CAT after 48 hrs by MTT assay; assay type: functional, cell-based
[6] = Drug localization in human HepG2 cell lysosomes at 10 uM after 8 hrs by Lyso tracker-staining based confocal microscopic analysis; assay type: ADME, Lysosome
Mus musculus [7] = assay: Toxicity in Kunming mouse xenografted with […] cells assessed as effect on liver weight index at 3 mg/kg, iv dosed every day starting from day 8 after tumor cell inoculation; assay type: organism-based; conditions: in vivo
Mus musculus [8] = assay: Toxicity in Kunming mouse xenografted with […] cells assessed as effect on heart weight index at 3 mg/kg, iv dosed every day starting from day 8 after tumor cell inoculation; assay type: organism-based; conditions: in vivo
SMMC-7721 [9] = assay: Effect on spermidine levels in human SMMC7721 cells at 20 uM after 24 hrs by HPLC analysis; assay type: functional, cell-based
HepG2 [10] = assay: Induction of superoxide production in human HepG2 cells at 20 uM after 24 hrs by microplate reader based assay; assay type: functional, cell-based
[11] = Drug uptake in human HepG2 cells assessed as PAT-mediated compound uptake by measuring fluorescent intensity at 5 to 10 uM after 6 hrs in presence of spermidine by HCS analysis; assay type: ADME, cell-based
H22 [12] = assay: Antitumor activity against […] xenografted in Kunming mouse assessed as suppression of tumor weight at 3 mg/kg, iv dosed every day starting from day 8 after tumor cell inoculation; assay type: functional
HepG2 [13] = assay: Induction of apoptosis in human HepG2 cells assessed as necrotic cells at 20 uM after 24 hrs by Annexin V-FITC/propidium iodide staining based flow cytometric analysis (reference value: 2.99 %); assay type: functional
[14] = Drug localization in human HepG2 cell mitochondria at 10 uM after 8 hrs by Mito tracker-staining based confocal microscopic analysis; assay type: ADME
HepG2 [15] = assay: Induction of ROS generation in human HepG2 cells assessed as depletion of GSH content at 20 uM after 24 hrs by GSSG assay; assay type: functional, cell-based
HepG2 [16] = assay: Induction of apoptosis in human HepG2 cells assessed as up-regulation of caspase 3 expression up to 20 uM after 24 hrs by Western blot analysis; assay type: functional, cell-based
SMMC-7721 [17] = assay: Antimigratory activity against human SMMC7721 cells incubated for 24 hrs by transwell assay; assay type: functional, cell-based
[18] = Drug uptake in human HepG2 cells assessed as PAT-mediated cellular uptake at 10 uM by HCS analysis; assay type: ADME, cell-based; conditions: TDE = time-dependent effect
Mus musculus [19] = assay: Toxicity in Kunming mouse xenografted with […] cells assessed as effect on spleen weight index at 3 mg/kg, iv dosed every day starting from day 8 after tumor cell inoculation; assay type: organism-based; conditions: in vivo
HepG2 [20] = assay: Induction of cleaved caspase 3 expression in human HepG2 cells up to 20 uM pre-treated with NAC measured after 24 hrs by Western blot analysis; assay type: functional, cell-based
SMMC-7721 [21] = assay: Cytotoxicity against human SMMC7721 cells assessed as cell growth inhibition after 48 hrs by MTT assay; assay type: functional, cell-based; conditions: SMMC-7721, 48 h
[22] = Cytotoxicity against human QSG7701 cells assessed as cell growth inhibition after 48 hrs by MTT assay; assay type: cell-based; conditions: QSG7701, 48 h
[23] = Drug localization in human HepG2 cell membranes at 10 uM after 8 hrs by DiO-staining based microscopic analysis; assay type: ADME
HepG2 [24] = assay: Inhibition of cell migration in human HepG2 cells pretreated with NAC measured after 24 hrs by transwell assay; assay type: functional, cell-based
HepG2 [25] = assay: Cytotoxicity against human HepG2 cells assessed as cell growth inhibition after 48 hrs by MTT assay; assay type: functional, cell-based; conditions: HepG2, 48 h
[26] = Drug uptake in human SMMC7721 cells assessed as PAT-mediated cellular uptake at 10 uM by HCS analysis; assay type: ADME, cell-based; conditions: TDE = time-dependent effect
HepG2 [27] = assay: Antiproliferative activity against human HepG2 cells assessed as reduction in cell viability at 20 uM pre-treated with TOC after 48 hrs by MTT assay; assay type: functional, cell-based
HepG2 [28] = assay: Induction of H2O2 production in human HepG2 cells; assay type: functional, cell-based
[29] = Drug uptake in human HepG2 cells assessed as PAT-mediated compound uptake by measuring fluorescent intensity at 10 uM after 2 to 8 hrs in presence of spermidine by HCS analysis; assay type: ADME, cell-based
SMMC-7721 [30] = assay: Effect on spermine levels in human SMMC7721 cells at 20 uM after 24 hrs by HPLC analysis; assay type: functional, cell-based
HepG2 [31] = assay: Induction of ROS generation in human HepG2 cells at 20 uM after 24 hrs in presence of TOC by DCFH-DA-staining based HCS analysis; assay type: functional, cell-based
[32] = Drug localization in human HepG2 cell nucleus at 10 uM after 8 hrs by propidium iodide-staining based microscopic analysis; assay type: ADME
HepG2 [33] = assay: Induction of apoptosis in human HepG2 cells assessed as upregulation of cleaved caspase 3 after 24 hrs by immunofluorescence analysis; assay type: functional, cell-based
[34] = Induction of apoptosis in human QSG7701 cells assessed as up-regulation of caspase 3 expression up to 20 uM after 24 hrs by Western blot analysis; assay type: cell-based; conditions: qsg7701, 24 h
H22 [35] = assay: Antimetastatic activity against […] xenografted in pulmonary metastasis Kunming mouse model assessed as reduction in tumor metastatic nodules at 3 mg/kg, iv dosed every day starting from day 8 after tumor cell inoculation; assay type: functional; set-up: scale not given: the % may be the effect or the level left
[36] = Drug uptake in human SMMC7721 cells assessed as PAT-mediated cellular uptake after 8 hrs by HCS analysis; assay type: ADME, cell-based
HepG2 [37] = assay: Antiproliferative activity against human HepG2 cells assessed as reduction in cell viability at 20 uM pre-treated with NAC after 48 hrs by MTT assay; assay type: functional, cell-based
HepG2 [38] = assay: Induction of p53 expression in human HepG2 cells up to 20 uM pre-treated with NAC after 24 hrs by Western blot analysis relative to control; assay type: functional, cell-based
HepG2 [39] = assay: Disruption of mitochondrial membrane potential in human HepG2 cells at 20 uM after 24 hrs by Rhodamine123 staining-based flow cytometry; assay type: functional, cell-based
HepG2 [40] = assay: Antiproliferative activity against human HepG2 cells assessed as reduction in cell viability at 20 uM pre-treated with CAT after 48 hrs by MTT assay; assay type: functional, cell-based
HepG2 [41] = assay: Effect on spermidine levels in human HepG2 cells at 20 uM after 24 hrs by HPLC analysis; assay type: functional, cell-based
[42] = Drug localization in human HepG2 cell endoplasmic reticulum at 10 uM after 8 hrs by ER tracker-staining based confocal microscopic analysis; assay type: ADME

## Cl.Cl.NCCCCNCCCCN1C(=O)c2cccc3c(-c4cc(=O)c5ccccc5o4)ccc(c23)C1=O
Mus musculus [1]
  Activity: Non-Toxic
HepG2 [2]
  Activity: 26.6%
H22 [3]
  Activity: Active
HepG2 [4]
  Activity: inactive
SMMC-7721 [5]
  Activity: inactive
[6]
  Drug uptake: Not Active
Mus musculus [7]
  Activity: Non-Toxic
Mus musculus [8]
  Activity: Non-Toxic
SMMC-7721 [9]
  Activity: inactive
HepG2 [10]
  Activity: Active
[11]
  Drug uptake: Not Active
H22 [12]
  Activity: 60.4%
HepG2 [13]
  Activity: 8.91%
[14]
  Drug uptake: Active
HepG2 [15]
  Activity: Active
HepG2 [16]
  Activity: Active
SMMC-7721 [17]
  Activity: Dose-dependent effect
[18]
  Drug uptake: Tde
Mus musculus [19]
  Activity: Non-Toxic
HepG2 [20]
  Activity: inactive
SMMC-7721 [21]
  IC50: 14.1 µM
[22]
  IC50: > 50 µM
[23]
  Drug uptake: Not Active
HepG2 [24]
  inhibition: inactive
HepG2 [25]
  IC50: 10.3 µM
[26]
  Drug uptake: Tde
HepG2 [27]
  Activity: inactive
HepG2 [28]
  Activity: Active
[29]
  Drug uptake: Not Active
SMMC-7721 [30]
  Activity: inactive
HepG2 [31]
  Activity: inactive
[32]
  Drug uptake: Not Active
HepG2 [33]
  Activity: Dose-dependent effect
[34]
  Activity: Non-Toxic
H22 [35]
  Activity: 77.9%
[36]
  Drug uptake: Dose-dependent effect
HepG2 [37]
  Activity: inactive
HepG2 [38]
  Activity: inactive
HepG2 [39]
  Activity: Active
HepG2 [40]
  Activity: inactive
HepG2 [41]
  Activity: inactive
[42]
  Drug uptake: Not Active

From ChEMBL document CHEMBL4007412, “Design, Synthesis, and Biological Evaluation of Mitochondria-Targeted Flavone-Naphthalimide-Polyamine Conjugates with Antimetastatic Activity” (J Med Chem, 2017)
